Measurements taken from patent US8748428B2, “Use of a PKC inhibitor” (Novartis AG, priority 2010, dated 2014).

Assays:
[1] = tested on: IL-6 secretion in TMD8 cells; experiment: IL-6 secretion (Quantikine ELISA); assay type: cell-based; settings: Homo sapiens; TMD8, ELISA of supernatant, 48 hours
Procedure: (§1) The fact that IL-6 is secreted from cells allowed for monitoring of IL-6 levels in cell supernatants. IL-6 secretion was determined by Quantikine ELISA using supernatant from treated cells. Cells were washed and plated at 100,000 cells/well in 100 ul in fresh media in round-bottom 96-well plates (Corning, #3358). The cells were then treated with DMSO or inhibitors at concentrations ranging from 80 nM to 10 uM (2-fold dilutions), and incubated at 37° C. for 48 hours. Then the conditioned media was transferred to v-bottom 96-well plates (Nunc, #12565436). The level of IL-6 secretion was determined by the Quantkine colorimetric ELISA kit from (R & D Systems, #D6050), according to the manufacturer's instructions. For the IL-6 ELISA, the conditioned media was diluted 1:2 with fresh media (except ion: the HBL1 conditioned media was not diluted, it was used 1:1). In FIG. 2, IL-6 secretion for each dose is expressed as a percentage of IL-6 secretion from cells treated with DMSO.

[2] = tested on: IL-6 secretion in HBL1 cells; experiment: IL-6 secretion (Quantikine ELISA); assay type: cell-based; settings: HBL1, ELISA of supernatant, 48 hours
Procedure: as §1

[3] = tested on: IL-6 mRNA in OCI-Ly10 cells; experiment: IL-6 mRNA expression (Taqman); assay type: cell-based; settings: OCI-Ly10, 24 hours, 10 nM to 10 uM
Excerpt: (§2) Constitutive activation of the NFkB pathway is a molecular hallmark of ABC DLBCL cells and is required for their proliferation and survival. See Davis, R. E., et al., J Exp Med, 194(12), 1861-1874 (2001). To confirm that the growth inhibitory effect in response to PKC inhibition is mediated through modulation of NFkB pathway signaling, the expression of NFkB pathway genes were monitored in response to AEB071 treatment. The NFkB-pathway-induced cytokine IL-6 was used as a marker to study NFkB pathway modulation by PKC inhibitors. See Lam, L. T., et al., Blood 111(7):3701-13 (2008). To measure IL-6 mRNA levels, cells were plated in […] plates in 2 ml media at 2M/ml, then treated with DMSO or inhibitors from 10 nM to 10 uM (4-fold dilutions) for 24 hours. Total RNA was harvested using the RNeasy kit (Qiagen, #74104) and cDNA was made from 1 μg total RNA using the High Capacity cDNA kit (ABI, #4368814), according to manufacturer's protocols. Taqman probes (ABI: IL-6, Hs00174131_m1) were used with Gene Expression Master Mix (ABI, 4369510) to determine the amount of mRNA expression for IL-6 relative to an endogenous control gene (ABI: TBP, 4326322E) and the DMSO control using the delta-delta Ct method.

[4] = tested on: IL-6 mRNA in OCI-Ly3 cells; experiment: IL-6 mRNA expression (Taqman); assay type: cell-based; settings: OCI-Ly3 (mutant CARD11), 24 hours, 10 nM to 10 uM
Excerpt: as §2

IL-6 mRNA in TMD8 cells = experiment: IL-6 mRNA expression (Taqman); assay type: cell-based; settings: TMD8, 24 hours, 10 nM to 10 uM
Excerpt: as §2

IL-6 mRNA in HBL1 cells = experiment: IL-6 mRNA expression (Taqman); assay type: cell-based; settings: HBL1, 24 hours, 10 nM to 10 uM
Excerpt: as §2

[5] = tested on: IL-10 mRNA in TMD8 xenograft tumor; experiment: IL-10 mRNA expression in TMD8 xenograft tumor tissue (PD arm); assay type: in vivo, SCID-beige mice
Procedure: To confirm that the growth inhibitory effect in response to PKC inhibition is mediated through modulation of NFkB pathway signaling, the mRNA expression of IL-10 was monitored in response to AEB071 treatment in a PD arm of the in vivo study. Mice were implanted with TMD8 cells as described above, and when the tumor volume reached ˜160 mm^3, a single dose of 80 mg/kg AEB071 was administered. Tumor samples were harvested and snap frozen in liquid nitrogen, at 1 hour or 8 hours following the single does of AEB071. Tissue samples were homogenized and lysed in RLT buffer (Qiagen, #74104) with Reagent DX (Qiagen, 19088) using the TissueLyser II (Qiagen, 85300). Total RNA was harvested using the RNeasy kit (Qiagen, #74104) and cDNA was made from 1 μg total RNA using the High Capacity cDNA kit (ABI, #4368814), according to manufacturer's protocols. The IL-10 Taqman probe (ABI, Hs00174086_m1) was used with Gene Expression Master Mix (ABI, 4369510) to determine the amount of mRNA expression for IL-10 relative to an endogenous control gene (ABI: TBP, 4326322E) and the DMSO control using the delta-delta Ct method. […] Consistent with the in vitro kinetics of NFkB target gene downregulation by AEB071, IL-10 mRNA expression was unaffected after just 1 hour of treatment (see, FIG. 3A).

SMILES: CN1CCN(c2nc(C3=C(c4c[nH]c5ccccc45)C(=O)NC3=O)c3ccccc3n2)CC1 [AEB071, 3-(1H-Indol-3-yl)-4-[2-(4-methylpiperazin-1-yl)quinazolin-4-yl]-1H-pyrrole-2,5-dione]
- IC50 [1]: < 0.2 µM
- IC50 [2]: < 0.2 µM
- IL-6 mRNA expression [3]: dose-dependent decrease
- IL-6 mRNA expression [4]: unaffected
- IL-6 mRNA expression (IL-6 mRNA in TMD8 cells): dose-dependent decrease
- IL-6 mRNA expression (IL-6 mRNA in HBL1 cells): dose-dependent decrease
- IL-10 mRNA expression in xenograft tumor tissue ([5]; 1 hour after single dose of 80 mg/kg): unaffected
- IL-10 mRNA expression in xenograft tumor tissue ([5]; 8 hours after single dose of 80 mg/kg): decrease
